# Experimental data as given in patent publication US20020037885A1, “Therapeutic compounds” (priority 1999, published 2002).
# Read-outs that look alike come from different tables or passages of the source.
# Key:
# [1] = tested on: marble burying behaviour in mice; assay: Mouse Marble Burying Assay (BUR); type: in vivo; details: for ED50: Mus musculus, sc
# Experimental: This assay was carried out essentially according to the procedure described by Treit et al. (1981) Pharmacol Biochem Behav; 15; 619-626.
# The results are presented as BUR ED50 (sc). This is the effective dose causing 50% inhibition of burying compared to control mice.
# [2] = effective dose causing 50% inhibition of burying compared to control mice, read-out: BUR ED50 (SC)
# [3] = Table 2, read-out: BUR sc ED50(mg/kg)
# [4] = effective dose causing 50% inhibition of burying compared to control mice
SMILES,melting point [°C],"ED50 [1, 3] [mg/kg]",further results
"C=CC[C@@H](N)c1ccccc1-c1noc2cc(Cl)ccc12.Cl [12(2), (R)-(+)-2-(6-chloro-1,2-benzisoxazol-3-yl)-α-2-propenyl-benzenemethanamine hydrochloride]",144 to 159,,"ED50 [1, 2]: 3.4 mg/kg"
"C=CCC(N)c1ccccc1-c1noc2ccncc12.O=C(O)/C=C\C(=O)O (stereo not drawn) [16 (7), 2-(isoxazolo[4,5-c]pyridin-3-yl)-α-2-propenyl-benzenemethanamine (Z)-butenedioate]",151 to 153,7.6,
"C=CCC(N)c1ccccc1-c1noc2c1CCCC2.O=C(O)/C=C\C(=O)O (stereo not drawn) [15 (25), 2-(4,5,6,7-tetrahydro-1,2-benzisoxazol-3-yl)-α-2-propenyl-benzenemethanamine (Z)-butenedioate]",144 to 145,3.2,
"Cl.NC(Cc1ccsc1)c1ccccc1-c1noc2ccccc12 (stereo not drawn) [36(2), 2-(1,2-benzisoxazol-3-yl)-α-[(thien-3-yl)-methyl)-benzenemethanamine hydrochloride]",264 to 267,,"ED50 [1, 2]: 1.2 mg/kg"
"C=CCC(N)c1ccccc1-c1cccc(C(F)(F)F)c1.O=C(O)/C=C/C(=O)O (stereo not drawn) [15 (34), 2-(3-trifluoromethylphenyl)-α-2-propenyl-benzenemethanamine (E)-butenedioate]",194 to 196,6.9,
"C=CCC(N)c1ccccc1-c1noc2ccc(F)cc12.Cl (stereo not drawn) [11(3), 2-(5-fluoro-1,2-benzisoxazol-3-yl)-α-2-propenyl-benzenemethanamine hydrochloride]",209 to 214,,"ED50 [1, 2]: 2.68 mg/kg"
"C=CCC(N)c1ccccc1-c1ccccc1.Cl (stereo not drawn) [15 (4), 2-phenyl-α-2-propenyl-benzenemethanamine hydrochloride]",214 to 218,8.6,
"Cl.NC(CC1CC1)c1ccccc1-c1noc2ccccc12 (stereo not drawn) [36(6), 2-(1,2-benzisoxazol-3-yl)-α-(cyclopropylmethyl)-benzenemethanamine hydrochloride]",,,"ED50 [1, 2]: 1.5 mg/kg"
"C#CCC(N)c1ccccc1-c1noc2cc(Cl)ccc12.C#CCC(N)c1ccccc1-c1noc2cc(Cl)ccc12.O=C(O)/C=C/C(=O)O (single isomer, unassigned; (-)) [13(5), (−)-2-(6-chloro-1,2-benzisoxazol-3-yl)-α-2-propynyl-benzenemethanamine (E)-butenedioate (2:1 salt)]",,,"BUR ED50 (SC) [1, 4]: 0.4 mg/kg"
"C=CCC(N)c1ccccc1-c1ccc(Cl)s1.O=C(O)/C=C/C(=O)O (stereo not drawn) [15 (14), 2-(5-chlorothien-2-yl)-α-2-propenyl-benzenemethanamine (E)-butenedioate]",192 to 199,19,
"C=CCC(N)c1ccccc1-c1nccs1.O=C(O)/C=C/C(=O)O (stereo not drawn) [16 (4), 2-(thiazol-2-yl)-α-2-propenyl-benzenemethanamine (E)-butenedioate]",156 to 161,9,
"Cl.NC(Cc1ccc(F)cc1)c1ccccc1-c1noc2ccccc12 (stereo not drawn) [Example 36, 2-(1,2-Benzisoxazol-3-yl)-α-(4-fluorobenzyl)-benzenemethanamine Hydrochloride.]",,,"BUR ED50 (SC) [1, 4]: 2.8 mg/kg"
"Cl.NC(c1ccccc1-c1noc2ccccc12)C1CC=CCC1 (stereo not drawn) [Example 37, 2-(1,2-Benzisoxazol-3-yl)-α-(3-cyclohexenyl)-benzenemethanamine Hydrochloride]",,,"ED50 [1, 2]: 3.1 mg/kg"
"C=CCC(N)c1ccccc1-c1cccc2ccccc12.Cl (stereo not drawn) [15 (6), 2-(napth-1-yl)-α-2-propenyl-benzenemethanamine hydrochloride]",,,BUR sc ED50(mg/kg) ([1]; Table 2): 11.6 mg/kg
"c1ccc(CNC(Cc2ccccc2)c2ccccc2-c2noc3ccccc23)cc1 (stereo not drawn) [Example 16(2), α-[2-(1,2-benzisoxazol-3-yl)phenyl]-N-benzyl-benzeneethanamine]",153,,
C=CCC(N)c1ccccc1-c1cc2ccccc2o1.Cl (stereo not drawn),225 to 227,,
C=CC[C@@H](N)c1cc(F)ccc1-c1noc2ccccc12.O=C(O)/C=C/C(=O)O,171 to 173,,
Cl.NCc1ccccc1-c1noc2ccccc12,233,,
